According to US9505728B2, “Triazolone compounds and uses thereof” (INCEPTION 2, INC., priority 2012, dated 2016):
pIC50: −log10 of the molar value.

Target: T1, Human PPARα (Homo sapiens, UniProt Q07869)
T1 construct: host or cells: proprietary non-human mammalian cells
T1 sequence (Q07869 1-468): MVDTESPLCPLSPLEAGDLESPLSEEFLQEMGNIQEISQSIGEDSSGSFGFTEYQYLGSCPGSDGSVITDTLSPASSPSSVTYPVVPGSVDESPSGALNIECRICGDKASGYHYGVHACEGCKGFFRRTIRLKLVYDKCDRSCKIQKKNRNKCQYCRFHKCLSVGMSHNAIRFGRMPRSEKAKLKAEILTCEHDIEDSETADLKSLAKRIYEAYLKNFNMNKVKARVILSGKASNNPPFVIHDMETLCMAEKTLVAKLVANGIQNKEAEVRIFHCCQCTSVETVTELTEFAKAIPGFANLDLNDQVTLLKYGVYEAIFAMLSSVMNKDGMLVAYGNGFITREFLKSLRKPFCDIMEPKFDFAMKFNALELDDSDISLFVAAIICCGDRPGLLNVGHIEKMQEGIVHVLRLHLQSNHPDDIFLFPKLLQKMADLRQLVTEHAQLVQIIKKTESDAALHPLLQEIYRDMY
Test: Human PPARα Reporter Assay (luciferase)
Assay type: cell-based
Details: human PPARα reporter cells, overnight incubation, antagonism; read-out: Luciferase IC50
Outline: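 Agonist or antagonist activity read as luciferase light from engineered reporter cells carrying human PPARα and a responsive reporter gene. Cells got compound immediately on dispensing, incubated overnight, then treatment media swapped for luciferase detection reagent.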

SMILES	pIC50
CCn1c(CCCc2ccc(-c3ccc(NS(=O)(=O)Cc4ccccc4)cn3)cc2)nn(Cc2ccc(C(C)(C)C)cc2)c1=O [Example 79, 1-{[4-(tert-Butyl)phenyl]methyl}-4-ethyl-3-{3-[4-(5-{[benzylsulfonyl]amino}(2-pyridyl))phenyl]propyl}-1,2,4-triazolin-5-one]	6.58
CCCn1c(CCCc2ccc(-c3ccc(OC)c(CC(=O)O)c3)cc2)nn(Cc2ccc(C(C)(C)C)cc2)c1=O [Example 80, 2-(4′-(3-(1-(4-(tert-Butyl)benzyl)-5-oxo-4-propyl-4,5-dihydro-1H-1,2,4-triazol-3-yl)propyl)-4-methoxy-[1,1′-biphenyl]-3-yl)acetic acid]	7.66
CCn1c(CCCc2ccc(-c3nccc(NS(=O)(=O)c4ccccc4)n3)cc2)nn(Cc2ccc(C(C)(C)C)cc2)c1=O [Example 81, N-(2-(4-(3-(1-(4-(tert-Butyl)benzyl)-4-ethyl-5-oxo-4,5-dihydro-1H-1,2,4-triazol-3-yl)propyl)phenyl)pyrimidin-4-yl)benzenesulfonamide]	6.90
CCn1c(CCCc2ccc(-c3cccc(NS(=O)(=O)c4ccc(C(F)(F)F)cc4)n3)cc2)nn(Cc2ccc(C(C)(C)C)cc2)c1=O [Example 82, 1-{[4-(tert-Butyl)phenyl]methyl}-4-ethyl-3-(3-{4-[6-({[4-(trifluoromethyl)phenyl]sulfonyl}amino)(2-pyridyl)]phenyl}propyl)-1,2,4-triazolin-5-one]	6.74
CCn1c(CCCc2ccc(-c3cccc(NS(=O)(=O)c4ccc(Cl)cc4)n3)cc2)nn(Cc2ccc(C(C)(C)C)cc2)c1=O [Example 83, 1-{[4-(tert-Butyl)phenyl]methyl}-3-{3-[4-(6-{[(4-chlorophenyl)sulfonyl]amino}(2-pyridyl))phenyl]propyl}-4-ethyl-1,2,4-triazolin-5-one]	7.22
CCn1c(CCCc2ccc(-c3cccc(NS(=O)(=O)c4ccc(OC)cc4)n3)cc2)nn(Cc2ccc(C(C)(C)C)cc2)c1=O [Example 84, 1-{[4-(tert-Butyl)phenyl]methyl}-4-ethyl-3-{3-[4-(6-{[(4-methoxyphenyl)sulfonyl]amino}(2-pyridyl))phenyl]propyl}-1,2,4-triazolin-5-one]	6.68
CCn1c(CCCc2ccc(-c3cccc(CC(=O)O)c3)cc2)nn(Cc2ccc(C(C)(C)C)c(C3CC3)c2)c1=O [Example 85, 2-(4′-(3-(1-(3-Cyclopropyl-4-(tert-butyl)benzyl)-4-ethyl-5-oxo-4,5-dihydro-1H-1,2,4-triazol-3-yl)propyl)-[1,1′-biphenyl]-3-yl)acetic acid]	6.18
CCn1c(CCCc2ccc(-c3ccc(NS(=O)(=O)c4ccc(C(F)(F)F)cc4)cn3)cc2)nn(Cc2ccc(C(C)(C)C)cc2)c1=O [Example 86, 1-{[4-(tert-Butyl)phenyl]methyl}-4-ethyl-3-(3-{4-[5-({[4-(trifluoromethyl)phenyl]sulfonyl}amino)(2-pyridyl)]phenyl}propyl)-1,2,4-triazolin-5-one]	6.01
CCn1c(CCCc2ccc(-c3ccc(OC)c(NS(=O)(=O)Cc4ccccc4)n3)cc2)nn(Cc2ccc(C(C)(C)C)cc2)c1=O [Example 87, 1-{[4-(tert-Butyl)phenyl]methyl}-4-ethyl-3-{3-[4-(5-methoxy-6-{[benzylsulfonyl]amino}(2-pyridyl))phenyl]propyl}-1,2,4-triazolin-5-one]	8.00
CCn1c(CCCc2ccc(-c3ccc(OC)c(NS(=O)(=O)c4ccc(C(F)(F)F)cc4)n3)cc2)nn(Cc2ccc(C(C)(C)C)cc2)c1=O [Example 88, 1-{[4-(tert-Butyl)phenyl]methyl}-4-ethyl-3-(3-{4-[5-methoxy-6-({[4-(trifluoromethyl)phenyl]sulfonyl}amino)(2-pyridyl)]phenyl}propyl)-1,2,4-triazolin-5-one]	7.62
CCn1c(CCCc2ccc(-c3ccc4occ(C(=O)O)c4c3)cc2)nn(Cc2ccc(C(C)(C)C)cc2)c1=O [Example 89, 5-(4-(3-(1-(4-(tert-Butyl)benzyl)-4-ethyl-5-oxo-4,5-dihydro-1H-1,2,4-triazol-3-yl)propyl)phenyl)benzofuran-3-carboxylic acid]	6.60
CCn1c(CCCc2ccc(-c3ccc(NS(=O)(=O)c4ccc(Cl)cc4)cn3)cc2)nn(Cc2ccc(C(C)(C)C)cc2)c1=O [Example 90, 1-{[4-(tert-Butyl)phenyl]methyl}-3-{3-[4-(5-{[(4-chlorophenyl)sulfonyl]amino}(2-pyridyl))phenyl]propyl}-4-ethyl-1,2,4-triazolin-5-one]	6.31
CCn1c(CCCc2ccc(-c3ccc(NS(=O)(=O)c4ccc(OC)cc4)cn3)cc2)nn(Cc2ccc(C(C)(C)C)cc2)c1=O [Example 91, 1-{[4-(tert-Butyl)phenyl]methyl}-4-ethyl-3-{3-[4-(5-{[(4-methoxyphenyl)sulfonyl]amino}(2-pyridyl))phenyl]propyl}-1,2,4-triazolin-5-one]	6.87
CCn1c(CCCc2ccc(-c3ccc(OC)c(NS(=O)(=O)c4ccc(Cl)cc4)n3)cc2)nn(Cc2ccc(C(C)(C)C)cc2)c1=O [Example 92, 1-{[4-(tert-Butyl)phenyl]methyl}-3-{3-[4-(6-{[(4-chlorophenyl)sulfonyl]amino}-5-methoxy(2-pyridyl))phenyl]propyl}-4-ethyl-1,2,4-triazolin-5-one]	8.30
CCn1c(CCCc2ccc(-c3ccc(OC)c(NS(=O)(=O)c4ccc(OC)cc4)n3)cc2)nn(Cc2ccc(C(C)(C)C)cc2)c1=O [Example 93, 1-{[4-(tert-Butyl)phenyl]methyl}-4-ethyl-3-{3-[4-(5-methoxy-6-{[(4-methoxyphenyl)sulfonyl]amino}(2-pyridyl))phenyl]propyl}-1,2,4-triazolin-5-one]	8.52
CCCOc1ccc(-c2ccc(CCCc3nn(Cc4ccc(C(C)(C)C)cc4)c(=O)n3CC)cc2)cc1CC(=O)O [Example 94, 2-(4′-(3-(1-(4-(tert-Butyl)benzyl)-4-ethyl-5-oxo-4,5-dihydro-1H-1,2,4-triazol-3-yl)propyl)-4-propoxy-[1,1′-biphenyl]-3-yl)acetic acid]	7.80
CCOc1ccc(-c2ccc(CCCc3nn(Cc4ccc(C(C)(C)C)cc4)c(=O)n3C)cc2)cc1CC(=O)O [Example 95, 2-(4′-(3-(1-(4-(tert-Butyl)benzyl)-4-methyl-5-oxo-4,5-dihydro-1H-1,2,4-triazol-3-yl)propyl)-4-ethoxy-[1,1′-biphenyl]-3-yl)acetic acid]	7.82

Now from value to compound:

pIC50	SMILES
6.13	CCn1c(CCCc2ccc(-c3cccc(NC(=O)c4ccccc4)n3)cc2)nn(Cc2ccc(C(C)(C)C)cc2)c1=O [Example 97, N-(6-{4-[3-(1-{[4-(tert-Butyl)phenyl]methyl}-4-ethyl-5-oxo(1,2,4-triazolin-3-yl))propyl]phenyl}(2-pyridyl))benzamide]
6.58	CCn1c(CCCc2ccc(-c3ccc(NS(=O)(=O)c4ccccc4)c(OC)n3)cc2)nn(Cc2ccc(C(C)(C)C)cc2)c1=O [Example 98, 1-{[4-(tert-Butyl)phenyl]methyl}-4-ethyl-3-[3-(4-{6-methoxy-5-[(phenylsulfonyl)amino](2-pyridyl)}phenyl)propyl]-1,2,4-triazolin-5-one]
6.28	CCn1c(CCCc2ccc(-c3ccc(S(=O)(=O)NCc4ccccc4)cc3)cc2)nn(Cc2ccc(C(C)(C)C)cc2)c1=O [Example 99, N-benzyl-4′-(3-(1-(4-(tert-butyl)benzyl)-4-ethyl-5-oxo-4,5-dihydro-1H-1,2,4-triazol-3-yl)propyl)-[1,1′-biphenyl]-4-sulfonamide]
6.15	CCCC(=O)Nc1cccc(-c2ccc(CCCc3nn(Cc4ccc(C(C)(C)C)cc4)c(=O)n3CC)cc2)n1 [Example 100, N-(6-{4-[3-(1-{[4-(tert-Butyl)phenyl]methyl}-4-ethyl-5-oxo-1,2,4-triazolin-3-yl)propyl]phenyl}-2-pyridyl)butanamide]
6.40	CCn1c(CCCc2ccc(-c3cccc(NC(=O)Cc4ccccc4)n3)cc2)nn(Cc2ccc(C(C)(C)C)cc2)c1=O [Example 101, N-(6-{4-[3-(1-{[4-(tert-Butyl)phenyl]methyl}-4-ethyl-5-oxo(1,2,4-triazolin-3-yl))propyl]phenyl}(2-pyridyl))-2-phenylacetamide]
6.16	CCn1c(CCCc2ccc(-c3cccc(NC(=O)C4CC4)n3)cc2)nn(Cc2ccc(C(C)(C)C)cc2)c1=O [Example 102, N-(6-{4-[3-(1-{[4-(tert-Butyl)phenyl]methyl}-4-ethyl-5-oxo(1,2,4-triazolin-3-yl))propyl]phenyl}(2-pyridyl))cyclopropylcarboxamide]
6.36	CCC(=O)NS(=O)(=O)c1cccc(-c2ccc(CCCc3nn(Cc4ccc(C(C)(C)C)cc4)c(=O)n3CC)cc2)c1 [Example 103, N-((4′-(3-(1-(4-(tert-Butyl)benzyl)-4-ethyl-5-oxo-4,5-dihydro-1H-1,2,4-triazol-3-yl)propyl)-[1,1′-biphenyl]-3-yl)sulfonyl)propionamide]
6.23	CCn1c(CCCc2ccc(-c3ccc(CS(=O)(=O)NCc4ccccc4)cc3)cc2)nn(Cc2ccc(C(C)(C)C)cc2)c1=O [Example 104, N-Benzyl-1-(4′-(3-(1-(4-(tert-butyl)benzyl)-4-ethyl-5-oxo-4,5-dihydro-1H-1,2,4-triazol-3-yl)propyl)-[1,1′-biphenyl]-4-yl)methanesulfonamide]
